Drawing on patent US12686673B2 (Blueprint Medicines Corporation, priority 2020, dated 2026), this text covers GI50 and IC50 for 22 molecules.

Common to all, as to assay type: cell-based
The target of test [1] is EGFR(D770_N771insSVD) expressing Ba/F3 stable cell line (Homo sapiens, UniProt P00533, DUP768-770, cells depend on it). The test is described as follows: Cellular proliferation (Alamar Blue) assay, EGFR D770_N771insSVD Ba/F3. Conditions: 72 hr, read-out: D770 IC50. As to the method: (§1) • 1. EGFR(D770_N771insSVD) expressing Ba/F3 stable cell line • 2. EGFR (A767_dupASV) expressing Ba/F3 stable cell line • 3. A431 cells • 4. EGFR (H773insNPH) expressing Ba/F3 stable cell line • 5. HER2 (A775_G776insYVMA) expressing Ba/F3 stable cell line Assay Procedure: • 1. Seed cells at 5000 for A431 and 15,000 cells for Ba/F3 in 100 μL/well in complete media (for A431: DMEM with […] and for Ba/F3 cells: RPMI with 10% FBS) in 96-well tissue culture plate. Leave outer wells without cells for background measurements. Incubate at 37 degree Celsius in […] humidified incubator for 16-18 hours. • 2. Add 0.025 ml of 5× concentration compound dilution or DMSO control. Final compound concentration range is 10-0.0005 μM prepared in 3-fold serial dilutions. Incubate for 72 hr at 37 degree Celsius in […] humidified incubator. • 3. Add 0.0125 ml Alamar Blue™ reagent to each well with multi-channel pipette and tap gently on each side of the plate to mix. Incubate for 3 hours at 37 degree Celsius in 5% CO2 humidified incubator. • 4. […] Data analysis was performed using XLfit 5.5.0.5.
(Resazurin is reduced to fluorescent resorufin, in cell work by metabolically active cells.)

For test [2], the target named is EGFR (A767_dupASV) expressing Ba/F3 stable cell line (Homo sapiens, UniProt P00533, DUP767-769, cells depend on it). The test is described as follows: Cellular proliferation (Alamar Blue) assay, EGFR A767_dupASV Ba/F3. Conditions: 72 hr, read-out: A767 IC50. How it is done: as §1
A further test concerns A431 cells. The test is described as follows: Cellular proliferation (Alamar Blue) assay, A431. How it is done: as §1
Setting [3] is: Homo sapiens, A-431; A431 cells, Alamar Blue, 72 hr; read-out: A431 IC50.
Where [4] appears, read: Homo sapiens, A-431; A431 cells, 72 hr, Alamar Blue; read-out: A431 IC50.

Structures can show the parent of a compound that is named as a salt. Where two headings read alike, the source gives them in different places.

Chain of EGFR(D770_N771insSVD) expressing Ba/F3 stable cell line (P00533 with tags, fused parts or gaps DUP768-770): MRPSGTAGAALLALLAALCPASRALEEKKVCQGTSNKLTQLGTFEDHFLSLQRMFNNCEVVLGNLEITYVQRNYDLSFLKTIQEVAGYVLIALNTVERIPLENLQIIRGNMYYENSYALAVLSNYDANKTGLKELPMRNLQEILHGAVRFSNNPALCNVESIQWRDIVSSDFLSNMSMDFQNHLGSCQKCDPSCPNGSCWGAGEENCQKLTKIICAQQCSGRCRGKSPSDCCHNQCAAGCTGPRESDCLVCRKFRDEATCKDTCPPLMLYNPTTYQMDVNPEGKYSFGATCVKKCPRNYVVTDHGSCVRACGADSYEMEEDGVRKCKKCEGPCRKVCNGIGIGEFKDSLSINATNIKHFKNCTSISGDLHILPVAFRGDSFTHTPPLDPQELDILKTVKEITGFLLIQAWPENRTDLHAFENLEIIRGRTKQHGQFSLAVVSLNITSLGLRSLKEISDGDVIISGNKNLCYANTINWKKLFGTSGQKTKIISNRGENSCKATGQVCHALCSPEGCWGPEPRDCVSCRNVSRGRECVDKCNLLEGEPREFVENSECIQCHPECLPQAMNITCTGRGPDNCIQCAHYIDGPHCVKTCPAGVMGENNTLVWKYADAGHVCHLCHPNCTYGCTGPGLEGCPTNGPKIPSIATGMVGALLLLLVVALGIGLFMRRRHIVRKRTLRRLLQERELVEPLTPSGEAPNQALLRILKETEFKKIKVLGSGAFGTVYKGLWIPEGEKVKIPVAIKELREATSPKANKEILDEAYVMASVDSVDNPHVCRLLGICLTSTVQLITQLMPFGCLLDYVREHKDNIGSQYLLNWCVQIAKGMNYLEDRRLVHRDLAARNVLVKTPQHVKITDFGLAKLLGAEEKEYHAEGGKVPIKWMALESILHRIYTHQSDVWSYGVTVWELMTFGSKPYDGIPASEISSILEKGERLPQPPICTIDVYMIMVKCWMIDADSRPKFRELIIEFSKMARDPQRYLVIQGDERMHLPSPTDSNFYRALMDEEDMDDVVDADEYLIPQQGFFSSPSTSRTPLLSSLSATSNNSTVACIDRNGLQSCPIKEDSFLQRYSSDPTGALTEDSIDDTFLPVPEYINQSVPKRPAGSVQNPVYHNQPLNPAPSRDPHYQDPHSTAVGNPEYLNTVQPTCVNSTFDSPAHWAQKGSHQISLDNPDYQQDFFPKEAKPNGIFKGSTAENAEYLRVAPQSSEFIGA
Chain of EGFR (A767_dupASV) expressing Ba/F3 stable cell line (P00533 with tags, fused parts or gaps DUP767-769): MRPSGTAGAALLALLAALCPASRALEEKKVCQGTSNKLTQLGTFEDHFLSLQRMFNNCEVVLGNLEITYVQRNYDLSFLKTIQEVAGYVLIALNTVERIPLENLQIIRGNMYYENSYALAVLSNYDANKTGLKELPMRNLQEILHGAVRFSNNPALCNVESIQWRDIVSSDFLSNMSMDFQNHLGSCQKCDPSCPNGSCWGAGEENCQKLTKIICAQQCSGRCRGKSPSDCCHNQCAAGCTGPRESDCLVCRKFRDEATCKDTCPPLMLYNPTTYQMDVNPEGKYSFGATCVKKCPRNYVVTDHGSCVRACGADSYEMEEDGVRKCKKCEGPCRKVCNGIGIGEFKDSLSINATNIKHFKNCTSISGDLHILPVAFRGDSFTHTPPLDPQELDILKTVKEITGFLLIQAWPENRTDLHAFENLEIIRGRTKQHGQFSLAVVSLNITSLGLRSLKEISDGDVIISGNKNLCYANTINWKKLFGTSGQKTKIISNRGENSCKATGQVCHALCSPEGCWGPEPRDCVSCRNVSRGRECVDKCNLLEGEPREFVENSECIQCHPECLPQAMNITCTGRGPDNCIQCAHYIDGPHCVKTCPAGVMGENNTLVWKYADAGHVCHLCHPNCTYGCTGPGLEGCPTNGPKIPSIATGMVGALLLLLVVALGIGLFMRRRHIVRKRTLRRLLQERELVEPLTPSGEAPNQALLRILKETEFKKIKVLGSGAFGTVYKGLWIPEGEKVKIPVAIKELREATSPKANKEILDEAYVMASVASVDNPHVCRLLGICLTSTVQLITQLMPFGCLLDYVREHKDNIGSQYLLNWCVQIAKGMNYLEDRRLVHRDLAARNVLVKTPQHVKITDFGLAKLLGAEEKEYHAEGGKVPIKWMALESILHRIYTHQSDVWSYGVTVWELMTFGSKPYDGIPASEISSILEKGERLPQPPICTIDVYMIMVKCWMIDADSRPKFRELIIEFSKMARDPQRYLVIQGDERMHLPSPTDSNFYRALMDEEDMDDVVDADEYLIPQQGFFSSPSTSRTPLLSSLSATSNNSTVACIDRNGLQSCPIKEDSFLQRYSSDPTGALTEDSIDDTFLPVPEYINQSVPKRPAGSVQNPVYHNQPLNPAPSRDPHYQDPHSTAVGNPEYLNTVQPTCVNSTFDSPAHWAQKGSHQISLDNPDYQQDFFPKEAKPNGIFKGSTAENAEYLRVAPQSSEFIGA

Regarding `C=CC(=O)Nc1ccc(F)c(Nc2nc(Nc3cnn(C)c3)ncc2-c2ccc(C(=O)NC)cc2)c1` [Compound 64, 4-(4-((5-acrylamido-2-fluorophenyl)amino)-2-((1-methyl-1H-pyrazol-4-yl)amino)pyrimidin-5-yl)-N-methylbenzamide], the GI50 in test [1] turned out to be 7870 nM; in test [2], 3000 nM. Moreover, the IC50 with A431 cells (setting [3]) was greater than 10000 nM.

On to `C=CC(=O)Nc1cccc(Oc2cc(Nc3cnn(C)c3)ncc2-c2ccc(C(F)(F)F)cc2)c1` [Compound 182, N-[3-({2-[(1-methyl-1H-pyrazol-4-yl)amino]-5-[4-(trifluoromethyl)phenyl]pyridin-4-yl}oxy)phenyl]prop-2-enamide; trifluoroacetic acid], for which the GI50 is 9980 nM in test [1] and 7470 nM in test [2]. Also, the IC50 in the test on A431 cells (setting [3]) came out at 6110 nM.

As to `C=CC(=O)Nc1ccc(F)c(Nc2nc(Nc3cnn(C)c3)nnc2Cl)c1` [Compound 155, N-(3-((6-chloro-3-((1-methyl-1H-pyrazol-4-yl)amino)-1,2,4-triazin-5-yl)amino)-4-fluorophenyl)acrylamide], the GI50 stood at 1410 nM in test [1] and 2480 nM in test [2]. In addition, the IC50 in the test with A431 cells (setting [3]) stood at 6460 nM.

For `C=CC(=O)Nc1ccc(F)c(Nc2nc(Nc3cnn(C)c3)ncc2-c2ccnc(C)c2)c1` [Compound 80, N-(4-fluoro-3-((2-((1-methyl-1H-pyrazol-4-yl)amino)-5-(2-methylpyridin-4-yl)pyrimidin-4-yl)amino)phenyl)acrylamide], the GI50 came to 256 nM in test [1] and 751 nM in test [2]. Also, the IC50 with A431 cells (setting [3]) turned out to be 82 nM.

Regarding `C=CC(=O)Nc1ccc(F)c(Nc2nc(Nc3nc(C)cs3)ncc2-c2ccc(C(F)(F)F)cc2)c1` [Compound 213, N-(4-fluoro-3-((2-((4-methylthiazol-2-yl)amino)-5-(4-(trifluoromethyl)phenyl)pyrimidin-4-yl)amino)phenyl)acrylamide], the GI50 was 1290 nM in test [1] and 3680 nM in test [2]. Also, the IC50 with A431 cells (setting [4]) amounted to 1820 nM.

With `C=CC(=O)Nc1ccc(F)c(Nc2nc(Nc3cnn(C)c3)ncc2-c2cn[nH]c2)c1` [Compound 98, N-(4-fluoro-3-((2-((1-methyl-1H-pyrazol-4-yl)amino)-5-(1H-pyrazol-4-yl)pyrimidin-4-yl)amino)phenyl)acrylamide], the GI50 in test [1] stood at 671 nM; in test [2] it was 942 nM. In the test with A431 cells (setting [3]), the IC50 is greater than 10000 nM.

Take `C=CC(=O)Nc1ccc(F)c(Nc2nc(Nc3cccnc3F)ncc2-c2ccc(C(F)(F)F)cc2)c1` [Compound 38, N-(4-fluoro-3-((2-((2-fluoropyridin-3-yl)amino)-5-(4-(trifluoromethyl)phenyl)pyrimidin-4-yl)amino)phenyl)acrylamide]: the GI50 stood at 360 nM in test [1] and 947 nM in test [2]. For the same molecule, in the test on A431 cells (setting [3]), the IC50 was found to be 1360 nM.

Turning to `C=CC(=O)Nc1cccc(Oc2nc(Nc3cnn(C)c3)cnc2Cl)c1` [Compound 154, N-(3-((3-chloro-6-((1-methyl-1H-pyrazol-4-yl)amino)pyrazin-2-yl)oxy)phenyl)acrylamide], the GI50 in test [1] and in test [2] was greater than 10000 nM throughout. Further, the IC50 with A431 cells (setting [3]) was greater than 10000 nM.

Turning to `C=CC(=O)Nc1ccc(F)c(Nc2nc(Nc3cccc(CN(C)C)c3)ncc2-c2ccc(C(F)(F)F)cc2)c1` [Compound 218, N-(3-((2-((3-((dimethylamino)methyl)phenyl)amino)-5-(4-(trifluoromethyl)phenyl)pyrimidin-4-yl)amino)-4-fluorophenyl)acrylamide], the GI50 in test [1] came out at 1690 nM; in test [2], 8470 nM. For the same molecule, in the test with A431 cells (setting [4]), the IC50 was 1580 nM.

Turning to `C=CC(=O)Nc1ccc(F)c(Nc2nc(Nc3cnn(C)c3)ncc2C2CC2)c1` [Compound 120, N-(3-((5-cyclopropyl-2-((1-methyl-1H-pyrazol-4-yl)amino)pyrimidin-4-yl)amino)-4-fluorophenyl)acrylamide trifluoroacetate], the GI50 is 967 nM in test [1] and 875 nM in test [2]. Also, the 50% inhibitory concentration (IC50) in the test with A431 cells (setting [3]) is 3800 nM.

For `C=CC(=O)Nc1cccc(Oc2nc(Nc3ccccc3OC)ncc2-c2ccc(C(F)(F)F)cc2)c1` [Compound 193, N-[3-({2-[(2-methoxyphenyl)amino]-5-[4-(trifluoromethyl)phenyl]pyrimidin-4-yl}oxy)phenyl]prop-2-enamide], the GI50 in test [1] and in test [2] was greater than 10000 nM throughout. In addition, the IC50 in the test on A431 cells (setting [3]) came to 8760 nM.

Turning to `C=CC(=O)Nc1ccc(F)c(Nc2nc(Nc3ccc(N(C)C)cc3)ncc2-c2ccc(C(F)(F)F)cc2)c1` [Compound 44, N-(3-((2-((4-(dimethylamino)phenyl)amino)-5-(4-(trifluoromethyl)phenyl)pyrimidin-4-yl)amino)-4-fluorophenyl)acrylamide trifluoroacetate], the GI50 in test [1] and in test [2] was greater than 10000 nM each time. The IC50 with A431 cells (setting [3]) was 484 nM.

In the case of `C=CC(=O)Nc1ccc(F)c(Nc2nc(NC3CCN(C)CC3)ncc2-c2ccc(C(F)(F)F)cc2)c1` [Compound 42, N-(4-fluoro-3-((2-((1-methylpiperidin-4-yl)amino)-5-(4-(trifluoromethyl)phenyl)pyrimidin-4-yl)amino)phenyl)acrylamide trifluoroacetate], the GI50 in test [1] and in test [2] was greater than 10000 nM each time. Besides, in the test with A431 cells (setting [3]), the IC50 stood at 8990 nM.

Take `C=CC(=O)Nc1ccc(F)c(Nc2nc(Nc3cc(C)ns3)ncc2-c2ccc(C(F)(F)F)cc2)c1` [Compound 211, N-[4-fluoro-3-({2-[(3-methyl-1,2-thiazol-5-yl)amino]-5-[4-(trifluoromethyl)phenyl]pyrimidin-4-yl}amino)phenyl]prop-2-enamide]: the GI50 in test [1] came out at 404 nM; in test [2] it was 667 nM. For the same molecule, in the test with A431 cells (setting [4]), the IC50 was 1600 nM.

On to `Cc1cc(Nc2ncc(Cl)c(Nc3cc(NC(=O)/C=C/CN(C)C)ccc3F)n2)sn1` [Compound 27, (E)-N-(3-((5-chloro-2-((3-methylisothiazol-5-yl)amino)pyrimidin-4-yl)amino)-4-fluorophenyl)-4-(dimethylamino)but-2-enamide], for which the GI50 in test [1] stood at 2620 nM; in test [2], 1990 nM. In addition, the IC50 with A431 cells (setting [3]) was greater than 10000 nM.

Regarding `C=CC(=O)Nc1ccnc(Nc2nc(Nc3cnn(C)c3)ncc2-c2ccc(C(F)(F)F)cc2)c1` [Compound 196, N-(2-((2-((1-methyl-1H-pyrazol-4-yl)amino)-5-(4-(trifluoromethyl)phenyl)pyrimidin-4-yl)amino)pyridin-4-yl)acrylamide], the GI50 in test [1] came out at 3210 nM; in test [2], 8470 nM. Further, the IC50 with A431 cells (setting [3]) came out at 7550 nM.

On to `C=CC(=O)Nc1cc(F)cc(Nc2nc(Nc3cnn(C)c3)ncc2-c2ccc(Br)cc2)c1` [Compound 207, N-(3-((5-(4-bromophenyl)-2-((1-methyl-1H-pyrazol-4-yl)amino)pyrimidin-4-yl)amino)-5-fluorophenyl)acrylamide], for which the results for the GI50 in test [1] and in test [2] were 32 nM and 31 nM, respectively. The IC50 in the test with A431 cells (setting [4]) worked out at 49 nM.

Turning to `C=CC(=O)Nc1cccc(Oc2nc(NC3CC3)ncc2-c2ccc(C(F)(F)F)cc2)c1` [Compound 194, N-(3-((2-(cyclopropylamino)-5-(4-(trifluoromethyl)phenyl)pyrimidin-4-yl)oxy)phenyl)acrylamide], the GI50 in test [1] and in test [2] was greater than 10000 nM in each case. In addition, in the test on A431 cells (setting [3]), the IC50 was greater than 10000 nM.

In the case of `C=CC(=O)Nc1ccc(F)c(Nc2nc(Nc3cnn(C)c3)ncc2C(=O)N(C)c2ccccc2)c1` [Compound 49, 4-((5-acrylamido-2-fluorophenyl)amino)-N-methyl-2-((1-methyl-1H-pyrazol-4-yl)amino)-N-phenylpyrimidine-5-carboxamide], the GI50 in test [1] is 8620 nM; in test [2], 3290 nM. The IC50 in the test on A431 cells (setting [3]) was greater than 10000 nM.

For `C=CC(=O)Nc1ccc(F)c(Nc2nc(Nc3ccccc3Cl)ncc2-c2ccc(C(F)(F)F)cc2)c1` [Compound 40, N-(3-((2-((2-chlorophenyl)amino)-5-(4-(trifluoromethyl)phenyl)pyrimidin-4-yl)amino)-4-fluorophenyl)acrylamide trifluoroacetate], the GI50 in test [1] and in test [2] was greater than 10000 nM in each case. Moreover, in the test with A431 cells (setting [3]), the IC50 amounted to 3830 nM.

`C=CC(=O)Nc1ccc(F)c(Nc2nc(Nc3cnn(C)c3)ncc2C2=CCOCC2)c1` [Compound 124, N-(3-((5-(3,6-dihydro-2H-pyran-4-yl)-2-((1-methyl-1H-pyrazol-4-yl)amino)pyrimidin-4-yl)amino)-4-fluorophenyl)acrylamide]: the GI50 is 328 nM in test [1] and 284 nM in test [2]. The IC50 in the test with A431 cells (setting [3]) stood at 1530 nM.

As to `C=CC(=O)Nc1cccc(Oc2nc(Nc3cnn(CCN(C)C)c3)ncc2-c2ccc(C(F)(F)F)cc2)c1` [Compound 235, N-(3-((2-((1-(2-(dimethylamino)ethyl)-1H-pyrazol-4-yl)amino)-5-(4-(trifluoromethyl)phenyl)pyrimidin-4-yl)oxy)phenyl)acrylamide], the values for the GI50 in test [1] and in test [2] were 619 nM and 980 nM, respectively. For the same molecule, the IC50 with A431 cells (setting [4]) was 1070 nM.

Usually IC50 stands for the concentration that inhibits the measured activity by half.
